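Five compound concentrations were applied to cells in 96-well plates for 48 hours; endpoints were derived by simple linear interpolation of the resulting dose-response curve. Definition used: TGI = concentration required for complete inhibition of growth.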 Where only a bound is given, the exact number is not on record here.

What all share (assay): NCI anticancer screen, dose series, 48 h
Experiment [1] has as its system T-47D breast.
Experiment [2] concerns SK-MEL-28 melanoma.
Experiment [3] deals with SF-268 CNS.
In experiment [4] the test system is HOP-92 NSCLC.
Experiment [5] deals with MCF7 breast.
Experiment [6] concerns HCC-2998 colon.
The test system of experiment [7] is BT-549 breast.
Experiment [8] concerns SK-MEL-5 melanoma.

On to `COc1ccc(N2C(=O)C3c4[nH]c5ccccc5c4C4c5ccccc5CC4C3C2=O)cc1` (centres undefined), for which the TGI in experiment [1], in experiment [2], in experiment [3], in experiment [4], in experiment [5] and in experiment [6] was greater than 100 µM each time. Besides, the TGI in experiment [7] was greater than 100 µM.

As for `C[C@@]12C[C@@H](c3ccccc3O1)N1Cc3ccccc3CSC1=N2`, the TGI in experiment [8], in experiment [1], in experiment [2], in experiment [3], in experiment [4] and in experiment [5] was greater than 100 µM throughout. The TGI in experiment [6] and in experiment [7] was greater than 100 µM throughout.

With `COc1ccc(-c2nc(-c3cnccn3)n(Cc3ccccc3)n2)cc1`, the TGI in experiment [8], in experiment [1], in experiment [2], in experiment [3], in experiment [4] and in experiment [5] was greater than 100 µM throughout. The TGI in experiment [6] and in experiment [7] was greater than 100 µM in each case.

Turning to `CN(/N=C/c1ccc(Cl)cc1)C1=NCCCCN1`, the TGI in experiment [8], in experiment [1], in experiment [3], in experiment [4], in experiment [5] and in experiment [6] was greater than 100 µM in each case. This molecule also displayed a TGI in experiment [7] greater than 100 µM.

For the molecule `O=C1CC(C(COCc2ccccc2)OCc2ccccc2)CC(=O)N1` (centres undefined), the TGI in experiment [8], in experiment [1], in experiment [2], in experiment [3], in experiment [4] and in experiment [5] was greater than 100 µM in each case. Further, the TGI in experiment [6] and in experiment [7] was greater than 100 µM each time.

As to `CC(=O)c1[nH]c(Nc2ccc(C)cc2)c(C(=S)Nc2ccccc2)c1N`, the TGI in experiment [8] was found to be 31 µM; in experiment [1], 37.2 µM; in experiment [2] it was 45.3 µM; in experiment [3], 30.2 µM; in experiment [4], 35.9 µM; in experiment [5], 30.6 µM. Besides, the TGI was 56.5 µM in experiment [6] and 31.6 µM in experiment [7].

For `OC(C1CCCCCCCCCC1)C(O)C1CCCCCCCCCC1` (centres undefined), the TGI in experiment [8], in experiment [1], in experiment [2], in experiment [3], in experiment [5] and in experiment [6] was greater than 100 µM in each case. The same molecule yielded a TGI in experiment [7] greater than 100 µM.

For `O=C1O[C@H]2C3C4CCC(C4[C@@H]2I)[C@H]13` (some centres undefined), the TGI in experiment [8], in experiment [1], in experiment [2], in experiment [3], in experiment [4] and in experiment [5] was greater than 100 µM throughout. For the same molecule, the TGI in experiment [6] and in experiment [7] was greater than 100 µM throughout.

Take `Cc1c2cccc-2c(OCCOC(=O)n2ccnc2)cc2c1[nH]c1ccccc12`: the TGI in experiment [8] was determined as 5.68 µM; in experiment [1] it was 8.15 µM; in experiment [2], 4.63 µM; in experiment [3], 5.8 µM; in experiment [4], 4.28 µM; in experiment [5], 19.5 µM. Further, the TGI in experiment [6] is 12.1 µM; in experiment [7], 9.06 µM.

With `COc1ccc(C2C(C#N)=C(S)N(C3OC(CO)C(O)C(O)C3O)C(C)=C2C(C)=O)cc1` (centres undefined), the TGI in experiment [8] is greater than 100 µM; in experiment [1], 97.1 µM; in experiment [2] it was greater than 100 µM; in experiment [3], greater than 100 µM; in experiment [4], greater than 100 µM; in experiment [5] it was greater than 100 µM. Besides, the TGI in experiment [6] and in experiment [7] was greater than 100 µM in each case.

In the case of `CC(=O)c1ccc2c3c1O[C@H]1c4[nH]c5ccccc5c4C[C@@]4(O)[C@@H](C2)N(CC2CC2)CC[C@]314`, the TGI was 31.8 µM in experiment [8]; 44 µM in experiment [1]; greater than 100 µM in experiment [2]; 28.8 µM in experiment [3]; 28.2 µM in experiment [4]; 30.4 µM in experiment [5]. In experiment [7], this molecule had a TGI of 29.6 µM.

On to `COc1cc(O)cc(O)c1C(=O)CC(Cl)(Cl)Cl`, for which the TGI in experiment [8], in experiment [1], in experiment [2], in experiment [3], in experiment [4] and in experiment [5] was greater than 100 µM each time. In addition, the TGI in experiment [6] and in experiment [7] was greater than 100 µM in each case.

Turning to `Nc1ccccc1OCCCOc1ccccc1N`, the TGI in experiment [8], in experiment [1], in experiment [2], in experiment [3], in experiment [4] and in experiment [5] was greater than 100 µM throughout. Moreover, the TGI in experiment [6] and in experiment [7] was greater than 100 µM in each case.

For the molecule `COc1ccc(Cn2c3ccc([N+](=O)[O-])cc3c(=O)n2Cc2ccccn2)cc1`, the TGI in experiment [8] was 83.9 µM; in experiment [1], 77.4 µM; in experiment [2], greater than 100 µM; in experiment [3], greater than 100 µM; in experiment [4], greater than 100 µM; in experiment [5] it was greater than 100 µM. The TGI in experiment [6] and in experiment [7] was greater than 100 µM in each case.

Take `CN(C)CC1CCCc2ccccc2C1=O` (centres undefined): the TGI worked out at 15.9 µM in experiment [8]; 17 µM in experiment [1]; 13 µM in experiment [2]; 5.55 µM in experiment [3]; 34.8 µM in experiment [4]; 0.644 µM in experiment [5]. The TGI in experiment [6] is 12 µM; in experiment [7], 9.8 µM.

On to `C1=CN2C[n+]3ccc4ccccc4c3N=C2c2ccccc21`, for which the TGI in experiment [8] came to 1.5 µM; in experiment [1], 5.29 µM; in experiment [3] it was 8.35 µM; in experiment [4], 7.92 µM; in experiment [5], 3.71 µM; in experiment [7], 20.9 µM.

Regarding `CCn1c(=O)c2c3ccc(OC)cc3[nH]c2c2ccc(OC)cc21`, the TGI in experiment [8], in experiment [1], in experiment [2], in experiment [3], in experiment [4] and in experiment [5] was greater than 100 µM each time. Further, the TGI was 62.7 µM in experiment [6] and greater than 100 µM in experiment [7].

For `O=C(NNS(=O)(=O)c1ccccc1)c1csc(NC(=S)NC2CCCCC2)n1`, the TGI in experiment [8] is 27.6 µM; in experiment [1] it was 52.9 µM; in experiment [3], 62.8 µM; in experiment [4], greater than 100 µM; in experiment [5], greater than 100 µM; in experiment [6], greater than 100 µM. Further, the TGI in experiment [7] was 45.3 µM.

`CCOC(=O)C(NC(=O)CC)(Nc1ccc(S(=O)(=O)Nc2ccc(OC)nn2)cc1)C(F)(F)F` (centres undefined): the TGI in experiment [8], in experiment [1], in experiment [2], in experiment [3], in experiment [4] and in experiment [5] was greater than 100 µM in each case. Also, the TGI in experiment [6] and in experiment [7] was greater than 100 µM in each case.

With `OC1(c2ccc(Cl)cc2)c2c(c3ccccc3c3ccccc23)C2=NCCN21` (centres undefined), the TGI in experiment [8] was greater than 100 µM; in experiment [1], greater than 100 µM; in experiment [2], 34.9 µM; in experiment [3], 24.9 µM; in experiment [4], 49.4 µM; in experiment [5], 41.7 µM. The TGI in experiment [6] came out at 6.85 µM; in experiment [7], 33.7 µM.

For the molecule `CCCCOc1ccc2c(c1)CC[C@@H]1[C@@H]2CC[C@]2(C)C(=O)N(CCCC)C(=O)C[C@@H]12`, the TGI in experiment [8], in experiment [1], in experiment [4], in experiment [5], in experiment [6] and in experiment [7] was greater than 100 µM in each case.

Turning to `O=C1c2cccnc2-c2nccc3c2c1nc1ccc(Br)cc13`, the TGI in experiment [8] is 0.0887 µM; in experiment [1] it was 0.552 µM; in experiment [2], 0.169 µM; in experiment [3], 0.143 µM; in experiment [4], 0.794 µM; in experiment [5] it was less than 0.03 µM. Moreover, the TGI came out at 0.308 µM in experiment [6] and 0.176 µM in experiment [7].

For the molecule `O=c1c2cc(I)ccc2nc(SCc2nnco2)n1Cc1ccccc1`, the TGI in experiment [8], in experiment [1], in experiment [2], in experiment [3], in experiment [4] and in experiment [5] was greater than 100 µM each time. The TGI in experiment [6] and in experiment [7] was greater than 100 µM each time.

Regarding `O=C1c2cc3c(cc2CC1Cc1ccc2c(c1)CCC2)CCC3` (centres undefined), the TGI in experiment [8] was greater than 100 µM; in experiment [1], 63.1 µM; in experiment [2], greater than 100 µM; in experiment [3], greater than 100 µM; in experiment [5], greater than 100 µM; in experiment [6], greater than 100 µM. The same molecule had a TGI in experiment [7] greater than 100 µM.

On to `O=S(c1ccc(Cl)cc1)c1ccccc1C1=NCCN1` (centres undefined), for which the TGI in experiment [8], in experiment [1], in experiment [2], in experiment [3], in experiment [5] and in experiment [6] was greater than 100 µM each time. This molecule also came in with a TGI in experiment [7] greater than 100 µM.

Take `CC1(C)CN=CC(C)(OCc2ccccc2)C(=O)NC(C)(C)CN=CC(C)(OCc2ccccc2)C(=O)N1` (centres undefined): the TGI in experiment [8] is greater than 10 µM; in experiment [1], greater than 10 µM; in experiment [2], greater than 10 µM; in experiment [3] it was greater than 10 µM; in experiment [4], 0.808 µM; in experiment [5], greater than 10 µM. Moreover, the TGI in experiment [6] and in experiment [7] was greater than 10 µM throughout.

For `O=C1CCCCN1C(=O)c1ccc([N+](=O)[O-])cc1`, the TGI in experiment [8], in experiment [1], in experiment [2], in experiment [3], in experiment [4] and in experiment [5] was greater than 100 µM each time. Moreover, the TGI in experiment [6] and in experiment [7] was greater than 100 µM throughout.

Consider `Cn1c(COC(=O)NC2CCCCC2)c(COC(=O)NC2CCCCC2)c2ccc3cc(C=O)ccc3c21`, for which the TGI in experiment [8], in experiment [1], in experiment [3], in experiment [4], in experiment [5] and in experiment [6] was greater than 100 µM in each case. The TGI in experiment [7] was greater than 100 µM.

On to `CCN(CC)C1Oc2cc3c(cc2C(c2cccc(OC)c2O)C1C)OCO3` (centres undefined), for which the TGI in experiment [8] is 13.6 µM; in experiment [1], greater than 86 µM; in experiment [2], 42.2 µM; in experiment [3], greater than 54 µM; in experiment [5], greater than 46 µM; in experiment [6], greater than 46.7 µM. In experiment [7], this molecule showed a TGI greater than 44.9 µM.

With `CCC(=O)N1C(=O)C(CC)(CC)C(=O)N1C(=O)CC`, the TGI in experiment [8], in experiment [1], in experiment [2], in experiment [3], in experiment [5] and in experiment [6] was greater than 100 µM throughout. The molecule further gave a TGI in experiment [7] greater than 100 µM.

For the molecule `CC(C)=CCC[C@@H](C)C1=CC(=O)C(C)=C(O)C1=O`, the TGI was 16.4 µM in experiment [8]; 6.35 µM in experiment [1]; 31 µM in experiment [2]; 24.3 µM in experiment [3]; 7.18 µM in experiment [4]; 16 µM in experiment [5]. Further, the results for the TGI in experiment [6] and in experiment [7] were 32.9 µM and 18.1 µM, respectively.

Consider `COc1ccc(C2=NNC(c3cc4cc(Br)ccc4nc3Cl)C2)cc1` (centres undefined), for which the TGI in experiment [1], in experiment [2], in experiment [4], in experiment [5], in experiment [6] and in experiment [7] was greater than 25 µM each time.

With `C=CCOCn1ccc(N)nc1=O`, the TGI in experiment [8], in experiment [1], in experiment [2], in experiment [3], in experiment [5] and in experiment [6] was greater than 100 µM in each case. This molecule also returned a TGI in experiment [7] greater than 100 µM.

As for `COc1cc(S(=O)(=O)Nc2ccc(-c3csc(N4C(=O)C(C)SC4c4ccccc4)n3)cc2)ccc1Cl` (centres undefined), the TGI was greater than 100 µM in experiment [8]; 54.2 µM in experiment [1]; greater than 100 µM in experiment [2]; greater than 100 µM in experiment [3]; greater than 100 µM in experiment [4]; 43.2 µM in experiment [5]. This molecule had a TGI in experiment [7] greater than 100 µM.

The values are drawn from PubChem BioAssay (NCI).
